# Measured values: patent publication US12712060B2, “Multi-modal crypto/bio-human-machine interface” (The Regents of the University of California, priority 2022, dated 2026)
# Tests used:
# [1] = touch-based APAP TH-sensor (DPV) measurement on index fingertip after APAP medication intake; assay type: in vivo, human; conditions: 60 min after intake of 650 mg APAP, APAP-free threshold 3.7 nA
# Method: Adopted was a similar study framework to evaluate the in-situ detection capability of APAP TH-sensor. For this context, the measured signal is defined as the voltammetric current peak height ([…]), and the threshold for determining the APAP-free state was measured as 3.7 nA (three trials). FIGS. 3D and 3E show the corresponding voltammograms measured by the APAP TH-sensor, 10 min before and 60 min after the intake of an APAP-based medication (containing 650 mg APAP). The comparison of the two voltammograms and the corresponding extracted current peaks (IP, pre-intake ~0 nA vs. IP, post-intake ~15 nA) validates that the developed TH-sensor is capable of detecting the presence of circulating APAP molecules via the devised touch-based modality.
# [2] = human, in vivo, 60 min
# Excerpt: Embodiments specifically employ the ethanol TH-sensor to assess whether the sensor is capable of differentiating between two states: no alcohol-intake vs. recent intake of an alcoholic beverage. For this context, defined were the measured signal S as the slope of the sensor's amperometric response, and the threshold as Sfree, avg+3×Sfree, SD, where Sfree, avg and Sfree, SD are the average and standard deviation of the signals obtained from the alcohol-free subject (three trials). […] Then performed were touch-based TH-sensor measurements before (t=−20 min) and after (t=+60 min) the intake of an alcoholic beverage (~100 mL, 12.5% alcohol).
# Two human subjects participated in the characterization of each type of TH-sensor. For each trial, the subjects were instructed to wash their index fingertips with deionized (DI) water before testing and to rinse their mouth with cold water immediately after the beverage/medication intake (to avoid contamination from residue). Touch-based measurements were performed using corresponding TH-sensors before and at intermittent time points after the beverage/medication intake. The water loss from the fingertip was monitored by an evaporimeter (VapoMeter, Delfin Technologies). The fingertip temperature was monitored by a thermocouple (HT-9815, RISEPRO). […] BAC was estimated using an alcohol breathalyzer (S80, BACtrack Inc.). […]
# [3] = patient, 900 mg lithium carbonate; ~0-1 h pre-intake vs ~1-2 h post-intake
# Method: Further validated was the performance of the developed TOH-ISE in an in-situ lithium adherence monitoring study. To this end, a subject prescribed lithium-based medication was recruited. […] In a control experiment, touch-based sensing and salivary lithium analysis were also performed on three healthy subjects, where circulating lithium is expected to be negligible.
# In-situ TOH-ISE characterization. […] For each touch-based entry, the subjects were instructed to wash their index or middle fingertips with DI water before testing. The acquired potentiometric readouts were processed using the same method as the ex-situ experiments to extract the sensing signal. For saliva collection, the subjects were instructed to rinse their mouth with cold water before collection. The samples were collected via direct salivation using a Saliva Collection Aid (Salimetrics, CA, USA). The salivary lithium was quantified using a colorimetric lithium assay kit (Abcam ab235613, MA, USA) and Nanodrop One (Thermo Fisher, MA, USA).
# [4] = cited from earlier work
structure (smiles),measurement,setting,value
"CC(=O)Nc1ccc(O)cc1 [APAP, acetaminophen]","APAP TH-sensor voltammetric current peak height IP, post-intake",[1],~ 15 nA
CCO [ethanol],ethanol TH-sensor signal S (slope of amperometric response),[2],21.5 nA/min
"O=C([O-])[O-].[Li+].[Li+] [lithium, lithium carbonate]","TOH-ISE touch-based sensing signal, post versus pre drug intake",[3],larger signal
same,"clinically relevant range in non-invasively retrievable biofluid (e.g., saliva)","[4]; saliva, ~twice the corresponding serum concentrations",0.5 to 3 mM
same,therapeutic window,[4]; severe adverse effects if overdosed,0.6 to 1.2 mM
